# Laboratory results as given in US20230000936A1, “A[…] ITCHING […] C[…]” (Demetrix, Inc., priority 2021, published 2023).
# “Also recorded” adds a separate entry of the source.
# How the values were obtained:
# Type in all cases: cell-based
# [1] = target: T1, EDG3 (Homo sapiens, UniProt Q99500); test: IC50 antagonist activity screen, PathHunter β-Arrestin, EDG3; details: for maximum inhibition (antagonism) EDG3: maximum of IC50 curve; for antagonism of EDG3 (in words): IC50 data
# Procedure: (§1) In each of the antagonist assays, PathHunter® cell lines were removed from a freezer stock and seeded at a volume of 20 μL into white walled, 384-well microplates and incubated at 37° C. Each cell was pre-incubated with an antagonist followed by an agonist challenge at the EC80 concentration. Cells were then diluted to generate a 5× sample in assay buffer. 5 μL of the 5× sample was then added to cells and incubated at 37° C. for 30 minutes. Finally, 5 μL of 6×EC80 agonist in assay buffer were added to the cells and incubated at 37° C. for 90 minutes or 180 minutes. The assay signal was generated through addition of 12.5 μL or 15 μL (50% V/V) of a detection reagent cocktail followed by a one hour incubation time at room temperature. Microplates were read following signal generation with a PerkinElmer Envision™ (PerkinElmer Inc., Waltham, Mass.) for chemiluminescent signal detection. Reactivity was analyzed using the CBIS data analysis suite (ChemInnovation, CA) where RLU refers to the raw measured values. The percent inhibition was calculated using the formula: % Inhibition=100%*(1−mean RLU of test sample−mean RLU of control)/(mean RLU of EC80 control−mean RLU of vehicle control).
# (§2) IC50 curves were measured using the same GPCR assay, PathHunter® β-Arrestin from Eurofins DiscoverX Products (Fremont, Calif.), as the GPCR reactivity screen. As used herein, strong activity against a receptor is considered a maximum activity of about 42% or higher. Higher results for antagonism against CHRM2, EDGE, and MRGPRX2 are considered better. It is further considered better when a cannabinoid inhibits more than one of the receptors.
# [2] = target: T2, MRGPRX2 (Homo sapiens, UniProt Q96LB1); test: IC50 antagonist activity screen, PathHunter β-Arrestin, MRGPRX2; details: for maximum inhibition (antagonism) MRGPRX2: maximum of IC50 curve; for antagonism of MRGPRX2 (in words): IC50 data
# T2 sequence (Q96LB1 1-330): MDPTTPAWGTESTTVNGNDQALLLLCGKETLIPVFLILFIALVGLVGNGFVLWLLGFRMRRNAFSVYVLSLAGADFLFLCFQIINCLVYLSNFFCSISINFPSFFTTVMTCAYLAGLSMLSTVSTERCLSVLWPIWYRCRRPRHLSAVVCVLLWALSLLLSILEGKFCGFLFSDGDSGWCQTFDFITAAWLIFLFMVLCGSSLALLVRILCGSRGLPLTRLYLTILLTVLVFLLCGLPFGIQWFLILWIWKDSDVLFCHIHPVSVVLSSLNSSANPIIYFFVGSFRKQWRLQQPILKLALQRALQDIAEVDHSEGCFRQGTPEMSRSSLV
# Procedure: as §1, §2
# [3] = target: T3, CHRM2 (Homo sapiens, UniProt P08172); test: IC50 antagonist activity screen, PathHunter β-Arrestin, CHRM2; details: for maximum inhibition (antagonism) CHRM2: maximum of IC50 curve; for antagonism of CHRM2 (in words): IC50 data
# T3 sequence (P08172 1-466): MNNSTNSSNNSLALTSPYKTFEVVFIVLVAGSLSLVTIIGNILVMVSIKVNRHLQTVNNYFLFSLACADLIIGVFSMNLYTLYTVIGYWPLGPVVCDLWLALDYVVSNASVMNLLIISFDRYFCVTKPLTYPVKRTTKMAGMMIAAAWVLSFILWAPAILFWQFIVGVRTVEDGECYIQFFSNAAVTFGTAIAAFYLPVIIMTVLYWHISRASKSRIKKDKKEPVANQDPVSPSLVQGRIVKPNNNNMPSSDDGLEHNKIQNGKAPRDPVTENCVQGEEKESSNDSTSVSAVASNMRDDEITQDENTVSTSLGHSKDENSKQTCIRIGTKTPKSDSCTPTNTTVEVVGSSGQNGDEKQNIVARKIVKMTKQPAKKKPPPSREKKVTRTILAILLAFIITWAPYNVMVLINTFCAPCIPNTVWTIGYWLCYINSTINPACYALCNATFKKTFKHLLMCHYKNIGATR
# Procedure: as §1, §2
# [4] = target: T3, CHRM2; test: GPCR reactivity screen, PathHunter β-Arrestin, antagonist assay CHRM2; details: for antagonist activity against CHRM2 (in words): GPCR reactivity screen; for CHRM2 (Antagonist) percent inhibition: antagonist mode, agonist challenge at EC80
# Procedure: (§3) To evaluate the role specific cannabinoid compounds play in the neurological signaling pathway for itching, a GPCR reactivity assay was performed to determine the reactivity of 19 cannabinoid compounds to each of CHRM2, EDG3, and MRGPRX2. The evaluated cannabinoid compounds were: CBN, THCV, CBDVA, CBG, CBL, CBC, CBDV, CBDA, CBD, CBGA, (+)-CBD, CBG-C4, CBD-C1, CBD-C2, CBGV, CBGA-C4, CBGVA, CBCA, and CBLA. Acetylcholine was used as the control for CHRM2, sphingosine-1-phosphate was used as the control for EDG3; and cortistatin 14 was used as the control for MRGPRX2.
# as §1
# (§4) As used herein, strong activity against a receptor is considered a percent activity of about 42% or higher. Higher results for antagonism against CHRM2, EDGE, and MRGPRX2 are considered better. It is further considered better when a cannabinoid inhibits more than one of the receptors.
# [5] = target: T1, EDG3; test: GPCR reactivity screen, PathHunter β-Arrestin, antagonist assay EDG3; details: for antagonist activity against EDG3 (in words): GPCR reactivity screen; for EDG3 (Antagonist) percent inhibition: antagonist mode, agonist challenge at EC80
# Procedure: as §3, §1, §4
# [6] = target: T3, CHRM2; test: GPCR reactivity screen, PathHunter β-Arrestin, agonist assay CHRM2; set-up: concentration or dose not given beside the values; details: agonist mode; control acetylcholine
# Procedure: as §3
# (§5) A total of six assays were run. Specifically, agonist and antagonist assays were run for each of CHRM2, EDG3, and MRGPRX2. In each of the three agonist assays, PathHunter® cell lines were removed from a freezer stock and seeded at a volume of 20 μL into white walled, 384-well microplates and incubated at 37° C. Each cell was incubated with a sample to induce a response and then diluted to generate a 5× sample in assay buffer. 5 μL of the 5× sample was then added to cells and incubated at 37° C. for 90 or 180 minutes. The final assay concentration was 1%. The assay signal was generated through addition of 12.5 μL or 15 μL (50% V/V) of a detection reagent cocktail followed by a one hour incubation time at room temperature. Microplates were read following signal generation with a PerkinElmer Envision™ (PerkinElmer Inc., Waltham, Mass.) for chemiluminescent signal detection. Reactivity was analyzed using the CBIS data analysis suite (ChemInnovation, CA) where RLU refers to the raw measured values. The percent activity was then calculated using the formula: % Activity=100%*(mean RLU of test sample−mean RLU of control)/(mean max control ligand−mean RLU of vehicle control).
# as §4
# [7] = target: T2, MRGPRX2; test: GPCR reactivity screen, PathHunter β-Arrestin, agonist assay MRGPRX2; details: agonist mode; control cortistatin 14
# Procedure: as §3, §5, §4
# [8] = target: T1, EDG3; test: GPCR reactivity screen, PathHunter β-Arrestin, agonist assay EDG3; set-up: concentration or dose not given beside the values; details: agonist mode; control sphingosine-1-phosphate
# Procedure: as §3, §5, §4
# [9] = target: T2, MRGPRX2; test: GPCR reactivity screen, PathHunter β-Arrestin, antagonist assay MRGPRX2; details: for antagonist activity against MRGPRX2 (in words): GPCR reactivity screen; for MRGPRX2 (Antagonist) percent inhibition: antagonist mode, agonist challenge at EC80
# Procedure: as §3, §1, §4
# T1 sequence (Q99500 whole entry): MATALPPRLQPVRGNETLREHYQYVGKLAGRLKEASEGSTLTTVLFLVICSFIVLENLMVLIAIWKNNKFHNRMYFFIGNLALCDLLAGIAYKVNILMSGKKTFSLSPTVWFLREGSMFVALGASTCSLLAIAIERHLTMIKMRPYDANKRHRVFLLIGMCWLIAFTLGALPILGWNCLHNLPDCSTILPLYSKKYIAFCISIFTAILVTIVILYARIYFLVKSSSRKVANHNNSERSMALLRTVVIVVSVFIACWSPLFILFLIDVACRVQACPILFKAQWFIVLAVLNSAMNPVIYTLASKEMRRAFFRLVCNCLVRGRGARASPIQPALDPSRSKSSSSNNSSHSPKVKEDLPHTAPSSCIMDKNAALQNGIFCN
SMILES,maximum inhibition (antagonism) EDG3 [1] [%],maximum inhibition (antagonism) MRGPRX2 [2] [%],maximum inhibition (antagonism) CHRM2 [3] [%],antagonism of EDG3 (in words) [1],antagonism of MRGPRX2 (in words) [2],antagonism of CHRM2 (in words) [3],antagonist activity against CHRM2 (in words) [4],CHRM2 (Antagonist) percent inhibition [4] [%],antagonist activity against EDG3 (in words) [5],EDG3 (Antagonist) percent inhibition [5] [%],CHRM2 (Agonist) percent activity [6] [%],MRGPRX2 (Agonist) percent activity [7] [%],EDG3 (Agonist) percent activity [8] [%],antagonist activity against MRGPRX2 (in words) [9],MRGPRX2 (Antagonist) percent inhibition [9] [%]
"CCCCCCCc1cc(O)c(C/C=C(\C)CCC=C(C)C)c(O)c1 [CBG-C7, cannabigerol heptyl]",32,99,10,,,,,,,,,,,,
"CCCCCCCCCc1cc(O)c(C/C=C(\C)CCC=C(C)C)c(O)c1 [CBG-C9, cannabigerol nonyl]",55,100,32,,,,,,,,,,,,
"C=C(C)[C@@H]1CCC(C)=C[C@H]1c1c(O)cc(CCCCCC)cc1O [CBD-C6, cannabidol hexyl]",11,98,64,,,,,,,,,,,,
"CCCCCCc1cc(O)c(C/C=C(\C)CCC=C(C)C)c(O)c1C(=O)O [CBGA-C6, cannabigerolic acid hexyl]",33,13,6,do not exhibit an antagonistic effect,do not exhibit an antagonistic effect,do not exhibit an antagonistic effect,,,,,,,,,
"CCCCCc1cc2c(c(O)c1C(=O)O)C=CC(C)(CCC=C(C)C)O2 (stereo not shown) [CBCA, cannabichromenic acid]",25,35,,,,,do not exhibit an antagonistic effect,7,do not exhibit an antagonistic effect,32,−1,4,1,do not exhibit an antagonistic effect; also recorded: antagonist activity,49
"CCCCCCCc1cc(O)c(C/C=C(\C)CCC=C(C)C)c(O)c1C(=O)O [CBGA-C7, cannabigerolic acid heptyl]",30,37,4,do not exhibit an antagonistic effect,do not exhibit an antagonistic effect,do not exhibit an antagonistic effect,,,,,,,,,
"CCCCCCc1cc(O)c(C/C=C(\C)CCC=C(C)C)c(O)c1 [CBG-C6, cannabigerol hexyl]",15,66,0,,,,,,,,,,,,
"CCCc1cc(O)c2c(c1)OC(C)(C)[C@@H]1CCC(C)=C[C@@H]21 [THCV, tetrahydrocannabivarin]",,21,0,,inhibition was not observed,,do not exhibit an antagonistic effect,42,do not exhibit an antagonistic effect,20,18,18,1,do not exhibit an antagonistic effect; also recorded: antagonist activity; also recorded: demonstrated antagonism,55
"CCCCCc1cc(O)c2c(c1)OC1(C)CCC3C1C2C3(C)C (stereo not shown) [CBL, cannabicyclol]",,81,47,,,,antagonist activity,84,,9,13,11,−1,antagonist activity,82
"C=C(C)[C@@H]1CCC(C)=C[C@H]1c1c(O)cc(CCCCCCCCC)cc1O [CBD-C9, cannabidol nonyl]",0,96,90,did not act as an antagonist,remaining as an antagonist,remaining as an antagonist,,,,,,,,,
"C=C(C)[C@@H]1CCC(C)=C[C@H]1c1c(O)cc(CCCCCCC)cc1O [CBD-C7, cannabidol heptyl]",20,98,90,,,,,,,,,,,,
"C=C(C)[C@@H]1CCC(C)=C[C@H]1c1c(O)cc(CCC)cc1O [CBDV, cannabidivarin]",,59,27,,,,,34,,24,3,3,1,antagonist activity,71
"CCCCCc1cc2c(c(O)c1C(=O)O)C1C3C(CCC3(C)O2)C1(C)C (stereo not shown) [CBLA, cannabicyclolic acid]",,44,,,,,,−19,,19,−4,2,3,,36
"CCCCCCCCCc1cc(O)c(C/C=C(\C)CCC=C(C)C)c(O)c1C(=O)O [CBGA-C9, cannabigerolic acid nonyl]",58,56,11,,,,,,,,,,,,
